# Where “and” joins values, the source holds several entries; their conditions need not be identical. Identical values can stand only once.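 Growth conditions: 96-well plates. Treatment: test compound, 48 hours, 5 concentrations. Analysis: linear interpolation between bracketing concentrations; unreached endpoints set to highest concentration. GI50 = concentration required for 50% inhibition of growth. TGI: concentration producing complete growth inhibition.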
# System: RPMI-8226 leukemia
# Test: NCI anticancer screen, dose series, 48 h
Compound,GI50,TGI [µM]
c1ccc2c3ccn4cc5c(cc4c-3nc2c1)CCCC5,5.11 µM,> 100
NC(=O)C(=CNc1nc(-c2ccc(Cl)c(Cl)c2)cs1)C(N)=O,40.4 µM,> 100
NC(N)=N/N=C/c1cc(Cl)cc(Cl)c1O,,> 100
O=C(Nc1cccc(Cl)c1)c1cc2ccccc2cc1O,1.52 µM and 0.535 µM,
OCCCCC#Cc1ccccc1C#Cc1cccc(O)c1,20.7 µM,53.7
O=C(N/N=C\c1cc(Br)ccc1O)c1ccncc1,3.08 µM,> 100
COc1ccccc1/C=C/c1cnccn1,,> 10
CCN(CC)CC(C)(C)C(=O)/C=C/c1ccc(Cl)c(Cl)c1,1.96 µM,5.47
COc1cc(NC(C)CCCN)c2nccc(C)c2c1OC (centres undefined),5.67 µM,23.2
COc1cc2cn3c4ccc(O)cc4[nH]c(=O)c3c2cc1OC,1.25 µM,10.4
O=C(O)c1cccc(OCCO)c1,,> 100
CC(=O)O[C@@H]1C[C@]2(C(C)C)O[C@@]1(C)[C@@H]1CCC(C)=C1[C@@H]2OC(=O)/C=C/c1ccccc1,9.63 µM,57.4

# System: U251 CNS
# Test: NCI anticancer screen, dose series, 48 h
Compound,GI50 [µM],TGI
c1ccc2c3ccn4cc5c(cc4c-3nc2c1)CCCC5,3.22,13.6 µM
NC(=O)C(=CNc1nc(-c2ccc(Cl)c(Cl)c2)cs1)C(N)=O,65,> 100 µM
NC(N)=N/N=C/c1cc(Cl)cc(Cl)c1O,,> 100 µM
O=C(Nc1cccc(Cl)c1)c1cc2ccccc2cc1O,1.74,19.6 µM and 8.44 µM
OCCCCC#Cc1ccccc1C#Cc1cccc(O)c1,15,31.3 µM
O=C(N/N=C\c1cc(Br)ccc1O)c1ccncc1,1.92,68.8 µM
COc1ccccc1/C=C/c1cnccn1,,> 10 µM
CCN(CC)CC(C)(C)C(=O)/C=C/c1ccc(Cl)c(Cl)c1,1.71,3.15 µM
COc1cc(NC(C)CCCN)c2nccc(C)c2c1OC (centres undefined),14.1,27.4 µM
COc1cc2cn3c4ccc(O)cc4[nH]c(=O)c3c2cc1OC,< 0.01,1.23 µM
O=C(O)c1cccc(OCCO)c1,,> 100 µM
CC(=O)O[C@@H]1C[C@]2(C(C)C)O[C@@]1(C)[C@@H]1CCC(C)=C1[C@@H]2OC(=O)/C=C/c1ccccc1,48.4,> 100 µM

# System: SK-MEL-2 melanoma
# Test: NCI anticancer screen, dose series, 48 h
Compound,GI50,TGI
c1ccc2c3ccn4cc5c(cc4c-3nc2c1)CCCC5,3.05 µM,10.2 µM
NC(=O)C(=CNc1nc(-c2ccc(Cl)c(Cl)c2)cs1)C(N)=O,75.6 µM,> 100 µM
NC(N)=N/N=C/c1cc(Cl)cc(Cl)c1O,,> 100 µM
O=C(Nc1cccc(Cl)c1)c1cc2ccccc2cc1O,0.415 µM and 2.94 µM,4.63 µM and 40.8 µM
OCCCCC#Cc1ccccc1C#Cc1cccc(O)c1,18.6 µM,38.8 µM
O=C(N/N=C\c1cc(Br)ccc1O)c1ccncc1,4.29 µM,> 100 µM
COc1ccccc1/C=C/c1cnccn1,,> 10 µM
CCN(CC)CC(C)(C)C(=O)/C=C/c1ccc(Cl)c(Cl)c1,2.5 µM,4.63 µM
COc1cc(NC(C)CCCN)c2nccc(C)c2c1OC (centres undefined),18.8 µM,49.8 µM
COc1cc2cn3c4ccc(O)cc4[nH]c(=O)c3c2cc1OC,0.0398 µM,5.36 µM
O=C(O)c1cccc(OCCO)c1,,> 100 µM
CC(=O)O[C@@H]1C[C@]2(C(C)C)O[C@@]1(C)[C@@H]1CCC(C)=C1[C@@H]2OC(=O)/C=C/c1ccccc1,> 100 µM,> 100 µM

# System: DU-145 prostate
# Test: NCI anticancer screen, dose series, 48 h
Compound,GI50,TGI [µM]
c1ccc2c3ccn4cc5c(cc4c-3nc2c1)CCCC5,2310 nM,10.5
NC(=O)C(=CNc1nc(-c2ccc(Cl)c(Cl)c2)cs1)C(N)=O,> 100000 nM,> 100
NC(N)=N/N=C/c1cc(Cl)cc(Cl)c1O,,> 100
O=C(Nc1cccc(Cl)c1)c1cc2ccccc2cc1O,3070 nM and 2380 nM,> 100
OCCCCC#Cc1ccccc1C#Cc1cccc(O)c1,17400 nM,40.9
O=C(N/N=C\c1cc(Br)ccc1O)c1ccncc1,2530 nM,> 100
COc1ccccc1/C=C/c1cnccn1,,> 10
CCN(CC)CC(C)(C)C(=O)/C=C/c1ccc(Cl)c(Cl)c1,1410 nM,2.71
COc1cc(NC(C)CCCN)c2nccc(C)c2c1OC (centres undefined),15300 nM,28.6
COc1cc2cn3c4ccc(O)cc4[nH]c(=O)c3c2cc1OC,22.9 nM,1.25
O=C(O)c1cccc(OCCO)c1,,> 100
CC(=O)O[C@@H]1C[C@]2(C(C)C)O[C@@]1(C)[C@@H]1CCC(C)=C1[C@@H]2OC(=O)/C=C/c1ccccc1,70100 nM,> 100

# System: UO-31 renal
# Test: NCI anticancer screen, dose series, 48 h
Compound,GI50 [µM],TGI [µM]
c1ccc2c3ccn4cc5c(cc4c-3nc2c1)CCCC5,14.6,29.8
NC(=O)C(=CNc1nc(-c2ccc(Cl)c(Cl)c2)cs1)C(N)=O,12.1,> 100
NC(N)=N/N=C/c1cc(Cl)cc(Cl)c1O,,> 100
O=C(Nc1cccc(Cl)c1)c1cc2ccccc2cc1O,0.34,> 100
OCCCCC#Cc1ccccc1C#Cc1cccc(O)c1,15.9,32.5
O=C(N/N=C\c1cc(Br)ccc1O)c1ccncc1,1.76,> 100
COc1ccccc1/C=C/c1cnccn1,,> 10
CCN(CC)CC(C)(C)C(=O)/C=C/c1ccc(Cl)c(Cl)c1,1.32,2.72
COc1cc(NC(C)CCCN)c2nccc(C)c2c1OC (centres undefined),17.6,34.4
COc1cc2cn3c4ccc(O)cc4[nH]c(=O)c3c2cc1OC,0.0398,1.64
O=C(O)c1cccc(OCCO)c1,,> 100
CC(=O)O[C@@H]1C[C@]2(C(C)C)O[C@@]1(C)[C@@H]1CCC(C)=C1[C@@H]2OC(=O)/C=C/c1ccccc1,20,> 100
